Data taken from patent US11497206B2, “Cell cryopreservation protective composition and use thereof” (Tianjin University, priority 2016, dated 2022).
Counter-ions that a name gives are not always drawn.

Columns and labels:
sheep blood cells [1] = experiment: Recovery survival rate of blood cells after cryopreservation in liquid nitrogen, hemolysis by microplate reader; assay type: cell-based
Method: (§1) (1) The respective cell cryopreservation protective solutions (consisting merely of PBS and the effective ingredients for cryopreservation) were prepared according to the following Table 9; (2) about 1×10^7 sheep blood cells or 20 μL rabbit blood was taken and added into about 1.5 mL to 1.8 mL of the cell cryopreservation protective solutions, and the suspensions were put into suitable freezing tubes and directly placed in liquid nitrogen for cryopreservation; (3) after cryopreservation, the cells were thawed and recovered at 37° C.; the survival rates were investigated by using a microplate reader (trademark: TECAN, model: […] 200 PRO) to determine the hemolysis in each sample, and the method for determining hemolysis is as follows: The recovered samples, a sample of PBS and a sample of water were placed in a centrifuge for centrifugation (2000 r/min, 10 min), and thereafter the supernatants were taken; the light transmittance thereof was measured using the microplate reader and the survival rates of the blood cells were calculated.

rabbit blood = experiment: Recovery survival rate of blood after cryopreservation in liquid nitrogen, hemolysis by microplate reader; assay type: cell-based
Method: as §1

sheep blood cells [2] = experiment: Influence of washing operation on survival rate of blood cells after 24 h immersion; settings: sheep blood cells immersed 24 h at 37° C., diluted 2 folds with PBS, washed by centrifugation (FIG. 11)
[3] = effective ingredient 1 mass % in PBS
[4] = effective ingredient 2 mass % in PBS
[5] = effective ingredient 3 mass % in PBS
[6] = effective ingredient 4 mass % in PBS
[7] = effective ingredient 5 mass % in PBS
[8] = effective ingredient 6 mass % in PBS
[9] = effective ingredient 40 mass % in PBS

C[N+](C)(C)CC(=O)[O-] [Betaine, trimethylammonium acetate]
Recovery cell survival rate (sheep blood cells [1]; [3]): 25.4% | Recovery cell survival rate (sheep blood cells [1]; [4]): 44.6% | Recovery cell survival rate (sheep blood cells [1]; [5]): 49.3% | Recovery cell survival rate (sheep blood cells [1]; [6]): 64.8% | Recovery cell survival rate (sheep blood cells [1]; [7]): 70.6% | Recovery cell survival rate (sheep blood cells [1]; [8]): 88.1% | Recovery cell survival rate (rabbit blood; [6]): 55.2% | Recovery cell survival rate (rabbit blood; [7]): 75.1% | Recovery cell survival rate (rabbit blood; [8]): 85.4% | Recovery cell survival rate (rabbit blood; effective ingredient 15 mass % in PBS): 89.0% | Survival rates of blood cells before and after washing (sheep blood cells [2]): not affected

OCC(O)CO [Glycerol]
Recovery cell survival rate (sheep blood cells [1]; [3]): 21.7% | Recovery cell survival rate (sheep blood cells [1]; [4]): 36.5% | Recovery cell survival rate (sheep blood cells [1]; [5]): 43.5% | Recovery cell survival rate (sheep blood cells [1]; [6]): 31.8% | Recovery cell survival rate (sheep blood cells [1]; [7]): 8.8% | Recovery cell survival rate (sheep blood cells [1]; [8]): 14.4% | Recovery cell survival rate (sheep blood cells [1]; effective ingredient 10 mass % in PBS): 35.8% | Recovery cell survival rate (sheep blood cells [1]; [9]): 48.0% | Recovery cell survival rate (rabbit blood; [9]): 32.6%

C=C(C)C(=O)OCCOP(=O)([O-])OCC[N+](C)(C)C [Phosphorylcholine derivative, 2-(methacryloyloxy)ethyl-2-(trimethylammonio)ethyl phosphate]
Recovery cell survival rate (sheep blood cells [1]; [6]): 80.9% | Recovery cell survival rate (rabbit blood; [8]): 73.9%

C[N+](C)(C)C[C@H](O)CC(=O)[O-] [L-carnitine, 3-carboxy-2-hydroxy-N,N,N-trimethyl-1-propanaminium inner salt (2R)]
Recovery cell survival rate (sheep blood cells [1]; [8]): 84.0% | Recovery cell survival rate (rabbit blood; [8]): 84.3%

C[S+](C)[O-] [DMSO, Dimethyl sulfoxide]
Recovery cell survival rate (sheep blood cells [1]; [3]): 8.9% | Recovery cell survival rate (sheep blood cells [1]; [4]): 24.4% | Recovery cell survival rate (sheep blood cells [1]; [5]): 32.4% | Recovery cell survival rate (sheep blood cells [1]; [6]): 44.4% | Recovery cell survival rate (sheep blood cells [1]; [7]): 57.0% | Recovery cell survival rate (sheep blood cells [1]; [8]): 40.8%

C=C(C)C(=O)OCC[N+](C)(C)CCCS(=O)(=O)[O-] [Sulfobetaine, 3-[dimethyl-[2-(2-methylprop-2-enoyloxy)ethyl]azaniumyl]propane-1-sulfonate]
Recovery cell survival rate (sheep blood cells [1]; [6]): 75.6% | Recovery cell survival rate (rabbit blood; [8]): 73.6%

C=CC(=O)NCCC[N+](C)(C)CCC(=O)[O-] [Carboxybetaine (meth)acrylamide, (3-acryloylaminopropyl)-(2-carboxyethyl)-dimethylammonium]
Recovery cell survival rate (sheep blood cells [1]; [6]): 71.3% | Recovery cell survival rate (rabbit blood; [8]): 65.1%
